Laboratory results taken from patent US9328374B2, “Selective culture medium and method for detecting carbapenem-resistant bacteria in a test sample” (Institut National de la Sante et de la Recherche Medicale …, priority 2011, dated 2016).
Like-named read-outs stand apart in the source and are kept apart here.

How the values were obtained:
E. coli = assay: MIC of imipenem, ertapenem and meropenem; format: cell-based, Escherichia coli; conditions: Escherichia coli
P. rettgeri = assay: MIC of imipenem, ertapenem and meropenem; format: cell-based, Providencia rettgeri
enterobacterial isolates = assay: MIC of imipenem, ertapenem and meropenem (groups of isolates, other species); format: cell-based, Enterobacteriaceae
P. stuartii = assay: MIC of imipenem, ertapenem and meropenem; format: cell-based, Providencia stuartii

Q: C[C@@H](O)[C@H]1C(=O)N2C(C(=O)O)=C(S[C@@H]3CN[C@H](C(=O)Nc4cccc(C(=O)O)c4)C3)[C@H](C)[C@H]12 [ETP, ertapenem] was tested. Which MIC (E. coli; E. coli 1020, CTX-M-1 + TEM-1, non-carbapenemase producer) did it give?
A: 0.023 µg/mL

Q: What about the MIC (E. coli; E. coli 1023, CTX-M-2 + TEM-1, non-carbapenemase producer, read-out: MIC) of the same compound?
A: 0.016 µg/mL

Q: What about the MIC (E. coli; E. coli 1034, TEM-1 + SHV-38, non-carbapenemase producer, read-out: MIC) of the same compound?
A: 0.006 µg/mL

Q: And the MIC (E. coli; E. coli 1048, TEM-1 + SHV-2a, non-carbapenemase producer, read-out: MIC)?
A: 0.012 µg/mL

Q: And the MIC (E. coli; E. coli 1082 (TEM-1))?
A: 0.019 µg/mL

Q: And the MIC (E. coli; E. coli 1082, TEM-1, non-carbapenemase producer)?
A: 0.019 µg/mL

Q: And the MIC (E. coli; E. coli 1092, OXA-1, non-carbapenemase producer, read-out: MIC)?
A: 0.19 µg/mL

Q: What about the MIC (E. coli; E. coli 6252, (wild type), non-carbapenemase producer) of the same compound?
A: 0.004 µg/mL

Q: What about the MIC (E. coli; E. coli 10121, CTX-M-2, non-carbapenemase producer, read-out: MIC) of the same compound?
A: 0.016 µg/mL

Q: What about the MIC (E. coli; E. coli 1108013, IMP-1 + TEM-1, read-out: MIC) of the same compound?
A: 4 µg/mL

Q: And the MIC (E. coli; E. coli AUS (NDM-1 + CTX-M-15 + TEM-1), read-out: MIC)?
A: 32 µg/mL

Q: What about the MIC (E. coli; E. coli AUS, NDM-1 + TEM-1 + CTX-M-15, read-out: MIC) of the same compound?
A: 32 µg/mL

Q: And the MIC (E. coli; E. coli BER (OXA-48 + CTX-M-15), read-out: MIC)?
A: 1.5 µg/mL

Q: What about the MIC (E. coli; E. coli BER, OXA-48 + TEM-1 + CTX-M-15, read-out: MIC) of the same compound?
A: 1.5 µg/mL

Q: And the MIC (E. coli; E. coli BOK (OXA-48 + CTX-M-15), read-out: MIC)?
A: 0.38 µg/mL

Q: What about the MIC (E. coli; E. coli BOK, OXA-48 + CTX-M-15, read-out: MIC) of the same compound?
A: 0.38 µg/mL

Q: And the MIC (E. coli; E. coli BON (OXA-48 + CTX-M-24 + TEM-1), read-out: MIC)?
A: 0.5 µg/mL

Q: And the MIC (E. coli; E. coli BON, OXA-48 + TEM-1 + CTX-M-24, read-out: MIC)?
A: 0.5 µg/mL

Q: What about the MIC (E. coli; E. coli BOU (OXA-48 + CTX-M-15), read-out: MIC) of the same compound?
A: 0.75 µg/mL

Q: And the MIC (E. coli; E. coli BOU, OXA-48 + CTX-M-15, read-out: MIC)?
A: 0.75 µg/mL

Q: And the MIC (E. coli; E. coli COL (KPC-2), read-out: MIC)?
A: 4 µg/mL

Q: And the MIC (E. coli; E. coli COL, KPC-2 + TEM-1 + CTX-M-9, read-out: MIC)?
A: 4 µg/mL

Q: What about the MIC (E. coli; E. coli DIH (VIM-19), read-out: MIC) of the same compound?
A: 16 µg/mL

Q: And the MIC (E. coli; E. coli DIH, VIM-19, read-out: MIC)?
A: 16 µg/mL

Q: And the MIC (E. coli; E. coli DIN, KPC-2 + TEM-1 + OXA-1, read-out: MIC)?
A: > 32 µg/mL

Q: What about the MIC (E. coli; E. coli E14 (CTX-M-14), read-out: MIC) of the same compound?
A: 0.12 µg/mL

Q: What about the MIC (E. coli; E. coli E14, CTX-M-14, non-carbapenemase producer, read-out: MIC) of the same compound?
A: 0.012 µg/mL

Q: What about the MIC (E. coli; E. coli ECA, ACC-1, non-carbapenemase producer, read-out: MIC) of the same compound?
A: 0.012 µg/mL

Q: What about the MIC (E. coli; E. coli EVB, VEB-1, non-carbapenemase producer, read-out: MIC) of the same compound?
A: 0.012 µg/mL

Q: What about the MIC (E. coli; E. coli FOR, CTX-M-15, non-carbapenemase producer, read-out: MIC) of the same compound?
A: 0.012 µg/mL

Q: What about the MIC (E. coli; E. coli GEN (NDM-1 + OXA-1 + CMY-30 + TEM-1), read-out: MIC) of the same compound?
A: > 32 µg/mL

Q: And the MIC (E. coli; E. coli GEN, NDM-1 + TEM-1 + CMY-30 + OXA-1, read-out: MIC)?
A: > 32 µg/mL

Q: And the MIC (E. coli; E. coli GOG (OXA-48 + CTX-M-24), read-out: MIC)?
A: 1.5 µg/mL

Q: And the MIC (E. coli; E. coli MET, Chromosome-encoded extended-spectrum cephalosporinase, non-carbapenemase producer, read-out: MIC)?
A: 0.012 µg/mL

Q: And the MIC (E. coli; E. coli NAA (OXA-48 + CTX-M-24), read-out: MIC)?
A: 2 µg/mL

Q: And the MIC (E. coli; E. coli OM3, OXA-48 + TEM-1 + CTX-M-15, read-out: MIC)?
A: 1 µg/mL

Q: And the MIC (E. coli; E. coli OM20, NDM-1 + TEM-1 + CTX-M-15, read-out: MIC)?
A: > 32 µg/mL

Q: And the MIC (E. coli; E. coli OM22, OXA-48 + TEM-1 + CTX-M-15, read-out: MIC)?
A: 1 µg/mL

Q: What about the MIC (E. coli; E. coli PSP (KPC-2), read-out: MIC) of the same compound?
A: 0.5 µg/mL

Q: What about the MIC (E. coli; E. coli PSP, KPC-2 + TEM-1 + OXA-1, read-out: MIC) of the same compound?
A: 0.5 µg/mL

Q: And the MIC (E. coli; E. coli RIC (NDM-1 + OXA-1 + OXA-10 + CMY-16), read-out: MIC)?
A: 3 µg/mL

Q: And the MIC (E. coli; E. coli RIC, NDM-1 + CMY-16 + OXA-1 + OXA-10, read-out: MIC)?
A: 3 µg/mL

Q: What about the MIC (E. coli; E. coli ROB (OXA-48), read-out: MIC) of the same compound?
A: 0.75 µg/mL

Q: And the MIC (E. coli; E. coli ROB, OXA-48, read-out: MIC)?
A: 0.75 µg/mL

Q: What about the MIC (E. coli; E. coli SYD, CMY-2, non-carbapenemase producer, read-out: MIC) of the same compound?
A: 0.012 µg/mL

Q: And the MIC (E. coli; E. coli TWA, IMP-8 + SHV-12, read-out: MIC)?
A: 8 µg/mL

Q: What about the MIC (E. coli; E. coli ZAN, OXA-48 + TEM-1 + CTX-M-14, read-out: MIC) of the same compound?
A: 8 µg/mL

Q: What about the MIC (E. coli; strain E. coli 1008, TEM-1 + CTX-M-1, non-carbapenemase producer, read-out: MIC) of the same compound?
A: 0.016 µg/mL

Q: What about the MIC (E. coli; strain E. coli 1034, TEM-1 + SHV-38, non-carbapenemase producer, read-out: MIC) of the same compound?
A: 0.006 µg/mL

Q: And the MIC (E. coli; strain E. coli 1048, TEM-1 + SHV-2a, non-carbapenemase producer, read-out: MIC)?
A: 0.012 µg/mL

Q: What about the MIC (E. coli; strain E. coli 10121, CTX-M-2, non-carbapenemase producer, read-out: MIC) of the same compound?
A: 0.016 µg/mL

Q: What about the MIC (E. coli; strain E. coli AME, OXA-48 + CTX-M-24, read-out: MIC) of the same compound?
A: 0.5 µg/mL

Q: And the MIC (E. coli; strain E. coli BON, OXA-48 + TEM-1 + CTX-M-24, read-out: MIC)?
A: 0.5 µg/mL

Q: And the MIC (P. rettgeri; P. rettgeri RAP, OXA-181 + OXA-1)?
A: 1 µg/mL

Q: And the MIC (P. rettgeri; Providencia rettgeri, P. rettgeri RAP (OXA-181 + OXA-1), read-out: MIC)?
A: 1 µg/mL

Q: What about the MIC (P. rettgeri; strain P. rettgeri RAP, OXA-181 + OXA-1) of the same compound?
A: 1 µg/mL

Q: And the MIC (enterobacterial isolates; Example 3, 19 isolates (1 Citrobacter freundii, 2 E. coli, 4 E. cloacae, 12 K. pneumoniae) with porin defect, read-out: MIC values of ertapenem of ertapenem non-susceptible isolates)?
A: > 0.25 µg/mL

Q: What about the MIC (enterobacterial isolates; S. marcescens 0911033, IMP-1) of the same compound?
A: >32 µg/mL

Q: And the MIC (enterobacterial isolates; S. marcescens 1008091, VIM-1+ CTX-M-15)?
A: >32 µg/mL

Q: What about the MIC (enterobacterial isolates; S. marcescens C7052, KPC-2 + TEM-1 + SHV-12) of the same compound?
A: >32 µg/mL

Q: And the MIC (enterobacterial isolates; Serratia marcescens, S. marcescens D6403, KPC-2 + TEM-1, read-out: MIC)?
A: > 32 µg/mL

Q: And the MIC (P. stuartii; P. stuartii PS1 (NDM-1 + CMY-6 + OXA-1))?
A: 0.38 µg/mL

Q: And the MIC (P. stuartii; P. stuartii PS1, NDM-1 + CMY-6 + OXA-1)?
A: 0.38 µg/mL

Q: And the MIC (P. stuartii; Providencia stuartii, P. stuartii NDM (NDM-1 + OXA-1 + CMY-6), read-out: MIC)?
A: 0.38 µg/mL

Q: And the MIC (P. stuartii; strain P. stuartii PS1, NDM-1 + CMY-6 + OXA-1)?
A: 0.38 µg/mL
